Reference: patent publication US20030225127A1, “Heterocyclic sulfonamide derivatives” (priority 2003, published 2003)

melting point | Compound
170 to 171 °C | CC(CNS(=O)(=O)C(C)C)c1ccc(-c2ccc3c(c2)CC(=O)N3)cc1 (centres unmarked) [Example 3, 5-[4-(1-methyl-2-{[(methylethyl)sulfonyl]amino}ethyl)phenyl]indolin-2-one]
184 to 185 °C | CC(C)S(=O)(=O)NC[C@H](C)c1ccc(-c2ccc3c(c2)CC(=O)N3)cc1 [Example 4, 5-[4-((1R)-1-methyl-2-{[(methylethyl)sulfonyl]amino}ethyl)phenyl]indolin-2-one]
